Biological target: T1, Cholecystokinin receptor (Rattus norvegicus, UniProt P30551+P30553)
T1 sequence (P30551 whole entry): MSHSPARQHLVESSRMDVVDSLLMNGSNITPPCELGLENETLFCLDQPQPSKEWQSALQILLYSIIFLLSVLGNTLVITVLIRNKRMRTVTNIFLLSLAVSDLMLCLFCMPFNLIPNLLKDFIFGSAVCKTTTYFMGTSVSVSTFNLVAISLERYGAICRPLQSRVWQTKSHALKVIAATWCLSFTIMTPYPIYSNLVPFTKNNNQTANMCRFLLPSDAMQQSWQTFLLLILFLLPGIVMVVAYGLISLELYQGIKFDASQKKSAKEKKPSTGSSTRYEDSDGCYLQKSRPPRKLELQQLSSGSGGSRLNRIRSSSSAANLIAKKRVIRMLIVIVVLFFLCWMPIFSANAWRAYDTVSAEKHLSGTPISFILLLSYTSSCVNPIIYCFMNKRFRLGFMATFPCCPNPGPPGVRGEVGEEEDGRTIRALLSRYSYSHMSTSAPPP
T1 sequence (P30553 whole entry): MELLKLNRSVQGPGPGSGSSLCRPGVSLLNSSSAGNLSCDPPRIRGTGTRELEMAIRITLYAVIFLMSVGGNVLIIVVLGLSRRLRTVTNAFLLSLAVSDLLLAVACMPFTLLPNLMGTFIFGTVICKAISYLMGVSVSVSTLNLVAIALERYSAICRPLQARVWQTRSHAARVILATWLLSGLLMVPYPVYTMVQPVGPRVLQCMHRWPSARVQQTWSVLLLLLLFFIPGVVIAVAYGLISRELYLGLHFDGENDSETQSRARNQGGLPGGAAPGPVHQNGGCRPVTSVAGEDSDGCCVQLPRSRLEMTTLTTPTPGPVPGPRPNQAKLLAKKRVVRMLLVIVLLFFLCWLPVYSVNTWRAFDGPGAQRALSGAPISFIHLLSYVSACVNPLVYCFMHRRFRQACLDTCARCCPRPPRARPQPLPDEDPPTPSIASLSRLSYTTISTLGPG
Assay: Inhibition of [125I]CCK binding to rat pancreatic Cholecystokinin receptor
Type: protein assay

Row | Compound | IC50 [µM]
1 | CC(C)C[C@H]1C(=O)N2c3ccccc3[C@@](O)(C[C@@H]3NC(=O)c4ccccc4-n4c3nc3ccccc3c4=O)[C@H]2N1C(=O)C(Cc1ccc(O)cc1)NC(=O)OC(C)(C)C (stereo partly drawn) | 46
2 | CC(C)C[C@H]1C(=O)N2c3ccccc3[C@@](O)(C[C@@H]3NC(=O)c4ccccc4N4C(=O)c5ccccc5NC34)[C@H]2N1C(=O)CCC(=O)O (stereo partly drawn) | 4.3
3 | CC(C)C[C@H]1C(=O)N2c3ccccc3[C@@](O)(C[C@@H]3NC(=O)c4ccccc4N4C(=O)c5ccccc5NC34)[C@H]2N1CCCc1ccccc1 (stereo partly drawn) | 0.2
4 | CC(C)C[C@H]1C(=O)N2c3ccccc3[C@@](O)(C[C@@H]3NC(=O)c4ccccc4-n4c3nc3ccccc3c4=O)[C@H]2N1C(=O)C(CCCNC(=O)OCc1ccccc1)NC(=O)OC(C)(C)C (stereo partly drawn) | 4.3
5 | CC(C)C[C@H]1C(=O)N2c3ccccc3[C@@](O)(C[C@@H]3NC(=O)c4ccccc4N4C(=O)c5ccccc5NC34)[C@H]2N1C(=O)CCC(=O)[O-].[Na+] (stereo partly drawn) | 1
6 | CCN1[C@H]2N(C(=O)[C@@H]1CC(C)C)c1ccccc1[C@@]2(O)C[C@@H]1NC(=O)c2ccccc2N2C(=O)c3ccccc3NC12 (stereo partly drawn) | 0.4
7 | CC(C)C[C@H]1C(=O)N2c3ccccc3[C@@](O)(C[C@@H]3NC(=O)c4ccccc4N4C(=O)c5ccccc5NC34)[C@H]2N1C(=O)C(CCCNC(=O)OCc1ccccc1)NC(=O)OC(C)(C)C (stereo partly drawn) | 1.3
8 | CC(=O)N1[C@H]2N(C(=O)[C@@H]1CC(C)C)c1ccccc1[C@@]2(O)C[C@@H]1NC(=O)c2ccccc2-n2c1nc1ccccc1c2=O | 22
9 | CC(C)C[C@H]1C(=O)N2c3ccccc3[C@@](O)(C[C@@H]3NC(=O)c4ccccc4-n4c3nc3ccccc3c4=O)[C@H]2N1C(=O)C(N)CCCCN.Cl (stereo partly drawn) | 2.5
10 | CC(C)C[C@H]1C(=O)N2c3ccccc3[C@@](O)(C[C@@H]3NC(=O)c4ccccc4-n4c3nc3ccccc3c4=O)[C@H]2N1C(=O)C(Cc1ccc(OCc2ccccc2)cc1)NC(=O)OC(C)(C)C (stereo partly drawn) | > 100
11 | CC(C)C[C@H]1C(=O)N2c3ccccc3[C@@](O)(C[C@@H]3NC(=O)c4ccccc4-n4c3nc3ccccc3c4=O)[C@H]2N1C(=O)OCc1ccccc1 | 5
12 | CC(C)C[C@H]1C(=O)N2c3ccccc3[C@@](O)(C[C@@H]3NC(=O)c4ccccc4-n4c3nc3ccccc3c4=O)[C@H]2N1C(=O)C(CCCCNC(=O)OCc1ccccc1)NC(=O)OC(C)(C)C (stereo partly drawn) | > 100
13 | CC(C)C[C@H]1C(=O)N2c3ccccc3[C@](C[C@@H]3NC(=O)c4ccccc4-n4c3nc3ccccc3c4=O)(OC(=O)CCC(=O)OCc3ccccc3)[C@H]2N1C(=O)OCc1ccccc1 | 100
14 | CC(C)C[C@@H]1N[C@H]2N(C1=O)c1ccccc1[C@@]2(O)C[C@@H]1NC(=O)c2ccccc2N2C(=O)c3ccccc3NC12 (stereo partly drawn) | 0.2
15 | CC(C)C[C@H]1C(=O)N2c3ccccc3[C@](C[C@@H]3NC(=O)c4ccccc4N4C(=O)c5ccccc5NC34)(OC(=O)CCC(=O)OCc3ccccc3)[C@H]2N1C(=O)OCc1ccccc1 (stereo partly drawn) | 100
16 | CC(C)C[C@@H]1N[C@H]2N(C1=O)c1ccccc1[C@]2(C[C@@H]1NC(=O)c2ccccc2-n2c1nc1ccccc1c2=O)OC(=O)CCC(=O)O | 85
17 | CC(C)C[C@H]1C(=O)N2c3ccccc3[C@@](O)(C[C@@H]3NC(=O)c4ccccc4-n4c3nc3ccccc3c4=O)[C@H]2N1C(=O)CCC(=O)O | > 100

Reference: ChEMBL document CHEMBL1123235, “Cholecystokinin antagonists. Synthesis of asperlicin analogues with improved potency and water solubility” (J Med Chem, 1986)
